The source of these data is the METLIN SMRT retention time set (Domingo-Almenara et al. 2019).

This data set in a line: gradient 5% acetonitrile 3 min, to 50% in 2 min, to 85% in 15 min, held 3 min, 100 µL/min. To be noted: column: Zorbax Extend-C18 2.1 x 50 mm; eluents: water / acetonitrile, 0.1% formic acid. The method in brief:
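The mobile phases were water and acetonitrile, each with 0.1% formic acid, pumped at 100 μL/min through a Zorbax Extend-C18 column (2.1 × 50 mm, 1.8 μm). Pure standards were injected as mixtures of ~100 molecules and detected by a quadrupole time-of-flight mass spectrometer in positive and negative ionization mode. Retention time came from computationally picked adduct peaks, each inspected by hand.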
In turn, `Cn1nc(-c2nc(C3CC3)no2)c2c1CCN(C(=O)c1ccc(F)c(Cl)c1)C2` registered an RP-LC retention time of 900 s.
`Cc1ccc(NC(=O)Cn2nc(N3CCCC3)c3ccccc3c2=O)cc1` yielded an RP-LC retention time of 938 s.
`CC(NC(=O)c1cccc(N(C)C)c1)C(=O)Nc1nc2ccccc2[nH]1` (configuration not stated): the RP-LC retention time stood at 603 s.
The figure for `COc1cccc(N2CCN(CC(O)c3ccc4c(c3)OCO4)CC2)c1` (configuration not stated) is 640 s; for `O=C(C1=C(O)C(=O)N(CCCn2ccnc2)C1c1cccc([N+](=O)[O-])c1)c1cccs1` (configuration not stated) it is 565 s.
The figure for `CC(C)c1noc(C2Cc3ccccc3N2C(=O)NC2CCCC2)n1` (configuration not stated) is 650 s; for `Cc1ccc(-c2nnc(SCc3cc(=O)n4oc(C)cc4n3)o2)cc1` it is 759 s; for `O=C(Nc1ccccc1F)N1CC(c2nc(CCOCC3CC3)no2)C1` it is 786 s.
The figure for `O=C(NCCN1CCCCC1)c1nc2ccccn2c1-c1ccsc1` is 527 s; for `CCc1noc(-c2ccc(-n3ncc(C(=O)N4CCOCC4)c3C)nc2)n1` it is 752 s.
`CCOC(=O)c1c(C)[nH]c(C(=O)N2CCCC(C(=O)NCCC(C)C)C2)c1C` (configuration not stated) registered an RP-LC retention time of 798 s.
The figure for `Cc1cc(C(=O)NCCOc2ccc3nnc(-c4ccccc4)n3n2)c(C)o1` is 698 s.
`CCN(CC)c1ccc(Nc2nc(-c3ccc(F)c(C)c3)cs2)cc1`: the RP-LC retention time was found to be 834 s.
`COc1ccc(OC)c(NC(=O)C2c3cc(OC)c(OC)cc3C(=O)N(C)C2c2cccnc2)c1` (configuration not stated) came in with an RP-LC retention time of 605 s.
The figure for `COC(=O)C1=CN(c2cc(F)ccc2C)c2ccccc2S1(=O)=O` is 832 s.
Regarding `COc1ccc(NS(=O)(=O)c2cc(-c3noc(C(=O)N4CCCC4)n3)sc2C)cc1OC`, the RP-LC retention time turned out to be 842 s.
The figure for `Cn1nnc2c(N3CCN(C(=O)C(C)(C)Oc4ccc(Cl)cc4)CC3)ncnc21` is 850 s.
In turn, `Cc1ccc2c(c1)OCC(=O)N2Cc1nc(-c2ccc(F)cc2)no1` displayed an RP-LC retention time of 970 s.
The figure for `COc1ccc(-c2noc(C3CCCN3C(=O)Nc3cccc(Br)c3)n2)cc1` (configuration not stated) is 972 s.
For `CN(C)CCNC(=O)CN1C(=O)C2CCCCN2c2ccc(C(=O)N3CCCC3)cc21` (configuration not stated) the value was 596 s; for `COc1ccc(-c2cc(C(=O)N3CCN(S(=O)(=O)c4ccc(F)c(C)c4)CC3)[nH]n2)cc1`, 910 s.
The figure for `CCC(NC(=O)c1cn2ccc(C)cc2n1)c1cccs1` (configuration not stated) is 685 s.
`O=C(CCCc1ccccc1)N1CCC(c2noc(-c3cnccn3)n2)C1` (configuration not stated): the RP-LC retention time is 776 s.
For `O=C(CCC1CCCC1)Nc1ccc(-c2nnc3n2CCCC3)cc1` the value was 765 s; for `CCC1CN2C=NC(N3CCN(C(=O)Nc4ccc(OC)c(Cl)c4)CC3)=CC2=N1` (configuration not stated), 807 s; for `CCCc1cc(N2CCN(C(=O)c3ccc(N(C)C)cc3)CC2)nc2nnc(CC)n12`, 649 s.
For `COC[C@@H]1CN(S(=O)(=O)c2ccc(C#N)cc2)C[C@H]1c1ccncc1` the value was 746 s.
`OC1(c2ccccn2)CCOC2(CCN(Cc3cccc(F)c3)CC2)C1` (configuration not stated): the RP-LC retention time was found to be 554 s.
The figure for `CCCC(=O)Nc1ccc2nc(N3CCN(c4ccc(OC)cc4)CC3)cc(C(=O)O)c2c1` is 633 s; for `Cc1nnc2ccc(S(=O)(=O)N(Cc3ccc(F)cc3)c3ccccc3)cn12` it is 863 s.
For `Nc1ccc(CC(CC(=O)O)C(=O)O)cc1` (configuration not stated) the value was 850 s.
Compound `O=C(CCc1nc2ccccc2s1)N1[C@H]2CC[C@@H]1c1cnc(-c3ccc(F)cc3)nc1C2` had an RP-LC retention time of 960 s.
